In patent US9334267B2, “RAF inhibitor compounds” (Deciphera Pharmaceuticals, LLC, priority 2012, dated 2016):

Assays:
human B-Raf V600E = target: T1, human B-Raf V600E (Homo sapiens, UniProt P15056, V600E); assay: Enzymatic assay of B-Raf V600E kinase activity (Raf/MEK1 ATPase, coupled PK/LDH, A340); type: biochemical; conditions: read-out: Enzyme IC50, nM B-Raf V600E
T1 construct: B-RafV600E (residues 433-726 containing V600E mutation) containing an N-terminal purification tag is expressed and purified; made in house
T1 sequence (P15056 433-726 V600E): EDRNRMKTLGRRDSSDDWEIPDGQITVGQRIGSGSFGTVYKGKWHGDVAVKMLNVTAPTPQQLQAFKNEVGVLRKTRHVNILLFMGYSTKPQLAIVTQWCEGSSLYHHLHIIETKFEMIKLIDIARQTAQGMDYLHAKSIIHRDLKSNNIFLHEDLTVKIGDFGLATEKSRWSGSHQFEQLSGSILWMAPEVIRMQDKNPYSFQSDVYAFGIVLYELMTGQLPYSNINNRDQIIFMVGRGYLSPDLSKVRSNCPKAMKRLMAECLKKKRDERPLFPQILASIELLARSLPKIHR
Experimental: Test compounds are evaluated for their inhibitory activities against one or more of human wild type B-Raf, human wild type C-Raf, human B-Raf V600E, human B-Raf V600E+T529I or human B-Raf V600E+G468A. T529I is a threonine to isoleucine B-Raf gatekeeper mutation and G468A is a B-Raf secondary mutation at G1403C in exon 11. The enzymatic assays of B-Raf, C-Raf and B-Raf mutations evaluate a property of Raf and MEK1 complex, which in the presence of ATP, catalyzes an enhanced ATP hydrolysis (Rominger, et al, Arch. Biochem. Biophys. 2007, 464: 130-137; US Patent Publication No. 2006/0211073). The ADP formed is monitored by the well-known coupled PK/LDH (pyruvate kinase/lactate dehydrogenase) system in the form of NADH oxidation, which can be monitored and detected spectrophotometrically by absorbance at 340 nm (A340; for principal of the method see Schindler et al, Science, 2000, 289: 1938-1942). Raf activated MEK1 ATPase activity is a property shared by all forms of Raf proteins.
B-RafV600E (residues 433-726 containing V600E mutation) containing an N-terminal purification tag is expressed and purified essentially as described previously (Wan et al, Cell, 2004, 116, 855-867).
Test compounds are evaluated for their inhibitory activities against one or more of wild type B-Raf, wild type C-Raf, B-Raf V600E, B-Raf V600E+T529I and B-Raf V600E+G468A. T529I is a B-Raf gatekeeper mutation and G468A is a B-Raf secondary mutation. The enzymatic assays of B-Raf, C-Raf and B-Raf mutations evaluate a property of Raf and MEK1 complex, which in the presence of ATP, catalyzes an enhanced ATP hydrolysis (Rominger, et al, Arch. Biochem. Biophys. 2007, 464: 130-137). The ADP formed is monitored by the well-known coupled PK/LDH (pyruvate kinase/lactate dehydrogenase) system in the form of NADH oxidation, which can be monitored and detected by absorbance at 340 nm (A340; for principal of the method see Schindler et al, Science, 2000, 289: 1938-1942). Raf activated MEK1 ATPase activity is a property shared by all forms of Raf proteins. In the B-Raf wild type enzymatic assay, the reaction mixture contains 1.2 nM B-Raf, 30 nM MEK1, 1000 uM ATP, 3.5 units (per 100 ul) of PK, 5 units (per 100 ul) of LDH, 1 mM phosphoenol pyruvate (PEP), and 280 uM of NADH. In the C-Raf assay, the reaction mixture contains 0.6 nM C-Raf, 26 nM MEK1, 2000 uM ATP, and the same amount of PK, LDH, PEP and NADH as above. In the B-Raf V600E assay, the reaction mixture contains […] B-Raf V600E, 26 nM MEK1, 200 uM ATP and the same amount of PK, LDH, PEP and NADH as above. In the B-RafV600E+T529I assay, the reaction mixture contains 6.2 nM B-Raf V600E+T529I, 30 nM MEK1, 200 uM ATP and the same amount of PK, LDH, PEP and NADH as above. In the B-Raf V600E+G468A assay, the reaction mixture contains 3.5 nM B-Raf, 30 nM MEK1, 200 uM ATP and the same amount of PK, LDH, PEP and NADH as above. All assays are started by mixing the above mixture with test compound and monitoring at A340 continuously for approximately 5 hr. […] In the aforementioned assays, the enzyme constructs can be screened prior to or after cleavage of the N-terminal purification tag.

A375 cells = assay: A375 cell proliferation assay (CellTiter-Blue/resazurin); type: cell-based; conditions: Homo sapiens, A-375, V600E mutation, read-out: Cell Proliferation Inhibition IC50, nM A375
Experimental: (§1) A375 cells (catalog #CRL-1619) are obtained from the American Type Culture Collection (ATCC, Manassas, Va.). Briefly, cells are grown in DMEM High Glucose supplemented with 10% characterized fetal bovine serum (Invitrogen, Carlsbad, Calif.) and 1% Penicillin/Streptomycin/L-Glutamine at 37 degrees Celsius, 5% CO2, and 95% humidity. Cells are allowed to expand until reaching 70-95% confluency at which point they are subcultured or harvested for assay use. A serial dilution of test compound is dispensed into a 384-well black clear bottom plate in triplicate. Six hundred twenty-five cells are added per well in 50 μL complete growth medium in the 384-well plate. Plates are incubated for 67 hours at 37 degrees Celsius, 5% CO2, and 95% humidity. At the end of the incubation period, 10 μL of a 440 μM solution of resazurin (Sigma, St. Louis, Mo.) in PBS is added to each well of the plate and plates are incubated for an additional 5 hours at 37 degrees Celsius, 5% CO2, and 95% humidity. Plates are read on a Synergy2 reader (Biotek, Winooski, Vt.) using an excitation of 540 nm and an emission of 600 nm. Data is analyzed using Prism software (Graphpad, San Diego, Calif.) to calculate IC50 values.
(§2) The A375, HT-29, and Colo-205 cells (ATCC) harbor a V600E mutation.

Colo205 cells = assay: Colo-205 cell proliferation assay (resazurin); type: cell-based; conditions: Homo sapiens; Colo-205 cells, V600E mutation; read-out: Cell Proliferation Inhibition IC50, nM Colo-205
Experimental: as §1, with “Colo205 cells” for “A375 cells”, “(catalog #HB-8307)” for “(catalog #CRL-1619)”, “in RPMI 1640” for “in DMEM High Glucose”, “Carlsbad, Calif.), 1 mM sodium pyruvate,” for “Carlsbad, Calif.)”, “reaching 30-60%” for “reaching 70-95%”, “triplicate. One thousand two-hundred fifty” for “triplicate. Six hundred twenty-five”
as §2

Row | SMILES | IC50 (human B-Raf V600E) | IC50 (A375 cells) | IC50 (Colo205 cells)
1 | CNc1ncc2cc(-c3cc(NC(=O)NCCC(C)(C)C)c(F)cc3F)c(C)nc2n1 [Example 1, 1-(2,4-Difluoro-5-(7-methyl-2-(methylamino)pyrido[2,3-d]pyrimidin-6-yl)phenyl)-3-(3,3-dimethylbutyl)urea] | < 150 nM | < 100 nM | < 100 nM
2 | CNc1ncc2cc(-c3ccc(F)c(NC(=O)NCCC(C)(C)C)c3)c(C)nc2n1 [Example 2, 1-(3,3-Dimethylbutyl)-3-(2-fluoro-5-(7-methyl-2-(methylamino)pyrido[2,3-d]pyrimidin-6-yl)phenyl)urea] | < 150 nM | < 100 nM | < 100 nM
3 | CNc1ncc2cc(-c3cc(NC(=O)NCCC(C)(C)C#N)c(F)cc3C)c(C)nc2n1 [Example 3, 1-(3-Cyano-3-methylbutyl)-3-(2-fluoro-4-methyl-5-(7-methyl-2-(methylamino)pyrido[2,3-d]pyrimidin-6-yl)phenyl)urea] | < 150 nM | < 100 nM | < 100 nM
4 | CNc1ncc2cc(-c3cc(NC(=O)NCCC(C)(C)F)c(F)cc3C)c(C)nc2n1 [Example 4, 1-(3-Fluoro-3-methylbutyl)-3-(2-fluoro-4-methyl-5-(7-methyl-2-(methylamino)pyrido[2,3-d]pyrimidin-6-yl)phenyl)urea] | < 150 nM | 100 to 1000 nM | 100 to 1000 nM
5 | COCCNc1ncc2cc(-c3cc(NC(=O)NCCC(C)(C)C)c(F)cc3C)c(C)nc2n1 [Example 5, 1-(3,3-Dimethylbutyl)-3-(2-fluoro-5-(2-((2-methoxyethyl)amino)-7-methylpyrido[2,3-d]pyrimidin-6-yl)-4-methylphenyl)urea] | < 150 nM | < 100 nM | < 100 nM
6 | CNc1ncc2cc(-c3cc(NC(=O)NC4CC(C)(C)C4)c(F)cc3C)c(C)nc2n1 [Example 6, 1-(3,3-Dimethylcyclobutyl)-3-(2-fluoro-4-methyl-5-(7-methyl-2-(methylamino)pyrido[2,3-d]pyrimidin-6-yl)phenyl)urea] | < 150 nM | < 100 nM | < 100 nM
7 | CNc1ncc2cc(-c3cc(NC(=O)NC4CC(C)(C)C4)c(F)cc3F)c(C)nc2n1 [Example 7, 1-(2,4-Difluoro-5-(7-methyl-2-(methylamino)pyrido[2,3-d]pyrimidin-6-yl)phenyl)-3-(3,3-dimethylcyclobutyl)urea] | < 150 nM | < 100 nM | < 100 nM
8 | CNc1ncc2cc(-c3cc(NC(=O)NCC(O)C(C)(C)C)c(F)cc3C)cnc2n1 (stereo not drawn) [Example 8, 1-[2-Fluoro-4-methyl-5-(2-methylaminopyrido[2,3-d]pyrimidin-6-yl)phenyl]-3-(2-hydroxy-3,3-dimethyl-butyl)urea] | < 150 nM | 100 to 1000 nM | < 100 nM
9 | CNc1ncc2cc(-c3cc(NC(=O)NCC4CC4(C)C)c(F)cc3C)cnc2n1 (stereo not drawn) [Example 9] | < 150 nM | 100 to 1000 nM | 100 to 1000 nM
10 | Cc1cc(F)c(NC(=O)NCC(O)C(C)(C)C)cc1-c1cc2cnc(N)nc2nc1C (stereo not drawn) [Example 10] | < 150 nM | 100 to 1000 nM | 100 to 1000 nM
11 | CNc1ncc2cc(-c3cc(NC(=O)NCC(O)C(C)(C)C)c(F)cc3F)c(C)nc2n1 (stereo not drawn) [Example 11, 1-[2,4-Difluoro-5-(7-methyl-2-methylamino-pyrido[2,3-d]pyrimidin-6-yl)phenyl]-3-(2-hydroxy-3,3-dimethyl-butyl)urea] | < 150 nM | 100 to 1000 nM | 100 to 1000 nM
12 | CNc1ncc2cc(-c3cc(NC(=O)NCCC(C)(C)C#N)c(F)cc3F)c(C)nc2n1 [Example 12, 1-(3-Cyano-3-methylbutyl)-3-(2,4-difluoro-5-(7-methyl-2-(methylamino)pyrido[2,3-d]pyrimidin-6-yl)phenyl)urea] | < 150 nM | 1000 to 10000 nM | 100 to 1000 nM
13 | CNc1ncc2cc(-c3ccc(F)c(NC(=O)NCCC(C)(C)C#N)c3)c(C)nc2n1 [Example 13, 1-(3-Cyano-3-methylbutyl)-3-(2-fluoro-5-(7-methyl-2-(methylamino)pyrido[2,3-d]pyrimidin-6-yl)phenyl)urea] | < 150 nM | 1000 to 10000 nM | 100 to 1000 nM
14 | CNc1ncc2cc(-c3cc(NC(=O)NCCC(C)(C)OC)c(F)cc3C)c(C)nc2n1 [Example 14, 1-(2-Fluoro-4-methyl-5-(7-methyl-2-(methylamino)pyrido[2,3-d]pyrimidin-6-yl)phenyl)-3-(3-methoxy-3-methylbutyl)urea] | < 150 nM | 100 to 1000 nM | < 100 nM
15 | CNc1ncc2cc(-c3cc(NC(=O)NCC(O)C(C)(C)C)c(F)cc3C)c(C)nc2n1 (stereo not drawn) [Example 15, 1-[2-Fluoro-4-methyl-5-(7-methyl-2-methylamino-pyrido[2,3-d]pyrimidin-6-yl)phenyl]-3-(2-hydroxy-3,3-dimethyl-butyl)urea] | < 150 nM | < 100 nM | < 100 nM
16 | Cc1cc(F)c(NC(=O)NCCC(C)(C)C)cc1-c1cc2cnc(NCCO)nc2nc1C [Example 16, 1-(3,3-Dimethylbutyl)-3-[2-fluoro-5-[2-(2-hydroxyethylamino)-7-methyl-pyrido[2,3-d]pyrimidin-6-yl]-4-methyl-phenyl]urea] | < 150 nM | < 100 nM | < 100 nM
